As a reminder, the EC50 is the concentration at which the effect is half-maximal.

Data on 27 molecules can be found in patent publication US20220226337A1 (Gilead Sciences, Inc., priority 2018, published 2022).

The structures appear in SMILES notation.

The target of this test is T1, α4β7 integrin interaction with MadCAM-1 (RPMI8866 cells) (Homo sapiens, UniProt P13612+P26010).
T1 construct: α4β7 integrin expressing cells; endogenous in cells; host or cells: RPMI8866 cells
T1 sequence (P13612 34-1032): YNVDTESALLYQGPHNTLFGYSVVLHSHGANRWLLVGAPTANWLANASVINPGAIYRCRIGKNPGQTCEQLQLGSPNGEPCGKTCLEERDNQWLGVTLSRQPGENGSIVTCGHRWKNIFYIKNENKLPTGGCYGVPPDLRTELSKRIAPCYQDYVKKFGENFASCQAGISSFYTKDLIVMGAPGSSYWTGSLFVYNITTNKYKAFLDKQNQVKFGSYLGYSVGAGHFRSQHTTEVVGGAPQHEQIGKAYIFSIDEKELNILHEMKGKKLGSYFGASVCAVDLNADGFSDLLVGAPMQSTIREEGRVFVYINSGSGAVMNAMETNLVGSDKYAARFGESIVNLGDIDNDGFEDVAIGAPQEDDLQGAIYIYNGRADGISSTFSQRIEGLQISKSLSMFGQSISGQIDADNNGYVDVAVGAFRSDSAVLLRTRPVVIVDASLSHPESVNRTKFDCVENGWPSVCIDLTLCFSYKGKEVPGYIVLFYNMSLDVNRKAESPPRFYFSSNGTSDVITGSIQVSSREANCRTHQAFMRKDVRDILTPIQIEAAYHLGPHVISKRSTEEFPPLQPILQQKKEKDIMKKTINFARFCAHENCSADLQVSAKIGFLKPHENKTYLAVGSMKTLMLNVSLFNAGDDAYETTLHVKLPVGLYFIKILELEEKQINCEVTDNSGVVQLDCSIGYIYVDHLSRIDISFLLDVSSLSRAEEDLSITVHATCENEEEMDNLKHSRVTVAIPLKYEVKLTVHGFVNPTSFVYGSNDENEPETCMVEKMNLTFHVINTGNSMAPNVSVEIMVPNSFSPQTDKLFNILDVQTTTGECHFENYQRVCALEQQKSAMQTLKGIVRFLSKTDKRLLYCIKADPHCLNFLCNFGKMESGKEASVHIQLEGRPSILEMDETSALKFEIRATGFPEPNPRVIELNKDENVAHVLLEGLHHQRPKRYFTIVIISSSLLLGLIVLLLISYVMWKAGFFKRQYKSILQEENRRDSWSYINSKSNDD
T1 sequence (P26010 20-798): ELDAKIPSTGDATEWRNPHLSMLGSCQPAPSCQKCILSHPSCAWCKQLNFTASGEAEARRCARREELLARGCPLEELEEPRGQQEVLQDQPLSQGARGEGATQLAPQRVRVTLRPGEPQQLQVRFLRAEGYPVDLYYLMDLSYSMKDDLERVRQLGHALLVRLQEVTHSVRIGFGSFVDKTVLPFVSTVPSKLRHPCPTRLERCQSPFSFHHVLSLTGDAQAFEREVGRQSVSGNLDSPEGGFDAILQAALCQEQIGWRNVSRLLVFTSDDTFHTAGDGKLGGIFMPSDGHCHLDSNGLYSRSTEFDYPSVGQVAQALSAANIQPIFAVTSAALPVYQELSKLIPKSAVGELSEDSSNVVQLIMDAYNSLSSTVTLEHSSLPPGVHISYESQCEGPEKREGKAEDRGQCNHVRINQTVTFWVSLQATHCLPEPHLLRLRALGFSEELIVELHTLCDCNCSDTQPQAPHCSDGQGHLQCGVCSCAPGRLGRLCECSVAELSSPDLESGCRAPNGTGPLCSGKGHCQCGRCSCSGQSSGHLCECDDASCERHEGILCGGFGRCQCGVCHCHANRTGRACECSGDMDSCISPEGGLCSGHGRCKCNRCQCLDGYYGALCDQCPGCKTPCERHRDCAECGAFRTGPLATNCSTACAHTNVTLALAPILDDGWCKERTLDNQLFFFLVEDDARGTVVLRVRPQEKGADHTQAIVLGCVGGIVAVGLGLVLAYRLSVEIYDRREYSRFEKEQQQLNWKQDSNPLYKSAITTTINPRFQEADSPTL
Briefly: α4β7 Integrin Cell Capture Assay. Format: cell-based. Particulars: capture of α4β7 integrin expressing RPMI8866 cells on recombinant MadCAM-1 extracellular domain-coated plate; 0.5 mM MnCl2. The procedure, abridged: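 RPMI8866 cells (0.5×10^6 cells/mL in DMEM + 0.5% FBS + 0.5 mM MnCl2) preincubated with compound 1 h at 37 °C, then allowed to adhere 30 min at 37 °C to plates coated with MAdCAM-1 extracellular domain (1.0 μg/mL). Bound cells fixed with 2% glutaraldehyde, Hoechst-stained, imaged and counted; EC50 from cell count versus concentration.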
`O=C(N[C@@H](Cc1ccc(-c2c(Cl)cc(F)cc2Cl)c2c1OCCO2)C(=O)O)c1c(Cl)cccc1Cl` [Example 5, (S)-3-(8-(2,6-dichloro-4-fluorophenyl)-2,3-dihydrobenzo[b][1,4]dioxin-5-yl)-2-(2,6-dichlorobenzamido)propanoic acid]: the EC50 turned out to be 55.4 nM.
Under `Cc1c(Cl)cc(-c2ccc(C[C@H](NC(=O)c3c(F)cc(N4CCOC[C@@H]4C(F)(F)F)cc3F)C(=O)O)c3c2OCCC3)c(=O)n1C` [Example 141] stands 0.529 nM.
Under `O=C(N[C@@H](Cc1ccc(-c2cccc3c2OCCC3)c2c1CCCO2)C(=O)O)c1c(Cl)cccc1Cl` [Example 67, (S)-3-([8,8′-bichroman]-5-yl)-2-(2,6-dichlorobenzamido)propanoic acid] stands 40.9 nM.
Under `O=C(N[C@@H](Cc1ccc(-c2cc(F)c(F)cc2OC2CC2)c2c1CCCO2)C(=O)O)c1c(F)cccc1F` [Example 68, (S)-3-(8-(2-cyclopropoxy-4,5-difluorophenyl)chroman-5-yl)-2-(2,6-difluorobenzamido)propanoic acid] stands 56.5 nM.
Take `Cc1cc(N2CCOC[C@@H]2C(F)(F)F)cc(F)c1C(=O)N[C@@H](Cc1ccc(-c2c(C)nc(C)n(C)c2=O)c2c1CCCO2)C(=O)O` (atropisomer, axis not shown) [Example 119]: the EC50 is 0.089 nM.
Under `Cc1cc(N2CCOC[C@@H]2C(F)(F)F)cc(F)c1C(=O)N[C@@H](Cc1ccc(-c2c(N3CCC3)cc(C)n(C)c2=O)c2c1CCCO2)C(=O)O` [Example 145] stands 0.714 nM; under `Cc1nc(-c2ccc(C[C@H](NC(=O)c3c(F)cc(N4CCOC[C@@H]4C(F)(F)F)cc3F)C(=O)O)c3c2CCC3)c(=O)n(C)c1C` [Example 193], 0.264 nM; under `Cn1cc(-c2ccc(C[C@H](NC(=O)c3c(F)cccc3F)C(=O)O)c3c2OCCC3)c(=O)n(C)c1=O` [Example 73, (S)-2-(2,6-difluorobenzamido)-3-(8-(1,3-dimethyl-2,4-dioxo-1,2,3,4-tetrahydropyrimidin-5-yl)chroman-5-yl)propanoic acid], 17.3 nM.
Under `Cc1nc(-c2ccc(C[C@@H](C(=O)O)N(C)C(=O)c3c(F)cc(N4CCOC[C@@H]4C(F)(F)F)cc3F)c3c2OCCC3)c(=O)n(C)c1C` [Example 125] stands 94.9 nM; under `O=C(N[C@@H](Cc1ccc(-c2c(Cl)cc(F)cc2Cl)c2c1C1CC1CO2)C(=O)O)c1c(F)cccc1F` (stereo partly drawn) [Example 77, (2S)-3-(4-(2,6-dichloro-4-fluorophenyl)-1,1a,2,7b-tetrahydrocyclopropa [c]chromen-7-yl)-2-(2,6-difluorobenzamido)propanoic acid], 70.3 nM.
Under `Cc1cc(N2CCOC[C@@H]2C(F)(F)F)cc(F)c1C(=O)N[C@@H](Cc1ccc(-c2c(C)nc(C)n(C)c2=O)c2c1CCCO2)C(=O)O` (atropisomer, axis not shown) [Example 120] stands 0.089 nM; under `Cc1cc(N2CCOC[C@@H]2C(F)(F)F)cc(F)c1C(=O)N[C@@H](Cc1ccc(-c2cc(N(C)C)c(C)n(C)c2=O)c2c1CCCO2)C(=O)O` [Example 147], 2.42 nM; under `Cn1c(=O)c(-c2ccc(C[C@H](NC(=O)c3c(F)cc(N4CCOC[C@@H]4C(F)(F)F)cc3F)C(=O)O)c3c2COC3)cc2cnccc21` [Example 190], 0.338 nM.
As for `N#Cc1ccc(-c2ccc(C[C@H](NC(=O)c3c(F)cccc3F)C(=O)O)c3c2OCCC3)c(Cl)c1` [Example 72, (S)-3-(8-(2-chloro-4-cyanophenyl)chroman-5-yl)-2-(2,6-difluorobenzamido)propanoic acid], the EC50 came out at 53.3 nM.
Under `O=C(N[C@@H](Cc1ccc(-c2c(Cl)cc(F)cc2Cl)c2c1COC2)C(=O)O)c1c(Cl)cccc1Cl` [Example 17, (S)-3-(7-(2,6-dichloro-4-fluorophenyl)-1,3-dihydroisobenzofuran-4-yl)-2-(2,6-dichlorobenzamido)propanoic acid] stands 127 nM.
Under `Cc1nc(-c2ccc(C[C@H](NC(=O)c3c(F)cc(N4CCOC[C@@H]4C(F)(F)F)cc3F)C(=O)O)c3c2C[C@H](O)C3)c(=O)n(C)c1C` [Example 191] stands 0.371 nM; under `Cc1cc(C)n(C)c(=O)c1-c1ccc(C[C@H](NC(=O)c2c(F)cc(N3CCOC[C@@H]3C(F)(F)F)cc2Cl)C(=O)O)c2c1OCCC2` [Example 159], 0.226 nM; under `COc1cc(C#Cc2ccc(OC(F)(F)F)cc2)cc(OC)c1-c1ccc(C[C@H](NC(=O)c2c(Cl)cccc2Cl)C(=O)O)c2c1OCCC2` [Example 93, (S)-2-(2,6-dichlorobenzamido)-3-(8-(2,6-dimethoxy-4-((4-(trifluoromethoxy)phenyl)ethynyl)phenyl)chroman-5-yl)propanoic acid], 491 nM.
Under `CCOCc1cc(OC)c(-c2ccc(C[C@H](NC(=O)c3c(F)cccc3F)C(=O)O)c3c2OCCC3)c(OC)c1` [Example 71, (S)-2-(2,6-difluorobenzamido)-3-(8-(4-(ethoxymethyl)-2,6-dimethoxyphenyl)chroman-5-yl)propanoic acid] stands 9.18 nM; under `Cc1cc(N2CCOC[C@@H]2C(F)(F)F)cc(F)c1C(=O)N[C@@H](Cc1ccc(-c2c(C)c(C)c(C)n(C)c2=O)c2c1CCCO2)C(=O)O` [Example 151], 0.144 nM.
With `O=C(N[C@@H](Cc1ccc(-c2c(Cl)cc(F)cc2Cl)c2c1CCCO2)C(=O)O)c1c(F)cc(N2CCOC[C@@H]2C(F)(F)F)cc1F` [Example 83, (S)-3-(8-(2,6-dichloro-4-fluorophenyl)chroman-5-yl)-2-(2,6-difluoro-4-((R)-3-(trifluoromethyl)morpholino)benzamido)propanoic acid], the EC50 came to 35.5 nM.
Under `Cc1nc(-c2ccc(C[C@H](NC(=O)c3c(F)cc(N4CCOC[C@@H]4C(F)(F)F)cc3F)C(=O)O)c3c2OCCO3)c(=O)n(C)c1C` [Example 175] stands 0.205 nM; under `CC1(C)CCc2c(C[C@H](NC(=O)c3c(Cl)cccc3Cl)C(=O)O)ccc(-c3c(Cl)cc(F)cc3Cl)c2O1` [Example 95, (S)-3-(8-(2,6-dichloro-4-fluorophenyl)-2,2-dimethylchroman-5-yl)-2-(2,6-dichlorobenzamido)propanoic acid], 625 nM; under `Cn1c(=O)n(-c2ccc(C[C@H](NC(=O)c3c(F)cc(N4CCOC[C@@H]4C(F)(F)F)cc3F)C(=O)O)c3c2COC3)c(=O)c2ccncc21` [Example 182], 0.277 nM.
Under `O=C(N[C@@H](Cc1ccc(-c2c(Cl)cc(F)cc2Cl)c2c1COC2)C(=O)O)c1c(F)cccc1F` [Example 16, (S)-3-(7-(2,6-dichloro-4-fluorophenyl)-1,3-dihydroisobenzofuran-4-yl)-2-(2,6-difluorobenzamido)propanoic acid] stands 31.1 nM; under `O=C(N[C@@H](Cc1ccc(-c2c(Cl)cc(F)cc2Cl)c2c1OCCC2)C(=O)O)c1c(F)cccc1F` [Example 98, (S)-3-(5-(2,6-dichloro-4-fluorophenyl)chroman-8-yl)-2-(2,6-difluorobenzamido)propanoic acid], 97.8 nM; under `Cc1nc(-c2ccc(C[C@H](NC(=O)c3c(F)cc(N4CCOC[C@@H]4C(F)(F)F)c(F)c3F)C(=O)O)c3c2OCCC3)c(=O)n(C)c1C` [Example 121], 0.758 nM.
